This is an account of results in patent US7268149B2 (Wyeth, priority 2002, dated 2007).

Test [1] concerns alkaline phosphatase activity in T47D cells. Put plainly: T47D cell alkaline phosphatase assay. Type of test: cell-based. The conditions noted are these: Homo sapiens, agonist mode, read-out: EC50 in the T47D alkaline phosphatase assay, test compounds. On the procedure: 4. T47D Cell Alkaline Phosphatase Assay
The purpose of this assay is to identify progestins or antiprogestins by determining a compound's effect on alkaline phosphatase activity in T47D cells.
a. Culture Medium: DMEM:F12 (1:1) (GIBCO, BRL) supplemented with 5% (v/v) charcoal stripped fetal bovine serum (not heat-inactivated), 100 U/ml penicillin, 100 μg/ml streptomycin, and 2 mM GlutaMax (GIBCO, BRL).
b. Alkaline Phosphatase Assay Buffer:
I. 0.1 M Tris-HCl, pH 9.8, containing 0.2% Triton X-100
II. 0.1 M Tris-HCl, pH 9.8 containing 4 mM p-nitrophenyl phosphate (Sigma).
c. Cell Culture and Treatment:
Frozen T47D cells were thawed in a 37° C. water bath and diluted to 280,000 cells/ml in culture medium. To each well in a 96-well plate (Falcon, Becton Dickinson Labware), 180 μl of diluted cell suspension was added. Twenty μl of reference or test compounds diluted in the culture medium was then added to each well. […] The cells were incubated at 37° C. in a 5% CO2/humidified atmosphere for 24 hr.
d. Alkaline Phosphatase Enzyme Assay:
At the end of treatment, the medium was removed from the plate and […] of assay buffer I was added to each well. The plates were shaken in a titer plate shaker for 15 min. Then 150 μl of assay buffer II was added to each well.
e. Analysis of Results: Analysis of Dose-response Data
For reference and test compounds, a dose response curve is generated for dose (X-axis) vs. the rate of enzyme reaction (slope) (Y-axis). Square root-transformed data are used for analysis of variance and nonlinear dose response curve fitting for both agonist and antagonist modes. Huber weighting is used to downweight the effects of outliers. EC50 or IC50 values are calculated from the retransformed values.

Another test deals with T47D cells. Put plainly: T47D cell proliferation assay (BrdU incorporation). Type of test: cell-based. On the procedure:
3. T47D cell Proliferation Assay
The objective of this assay is the determination of progestational and antiprogestational potency by using a cell proliferation assay in T47D cells. A compound's effect on DNA synthesis in T47D cells is measured.
a. Growth Medium: DMEM:F12 (1:1) (GIBCO, BRL) supplemented with 10% (v/v) fetal bovine serum (not heat-inactivated), 100 U/ml penicillin, […], and 2 mM GlutaMax (GIBCO, BRL).
b. Treatment Medium: Minimum Essential Medium (MEM) (#51200-038GIBCO, BRL) phenol red-free supplemented with 0.5% charcoal stripped fetal bovine serum, 100 U/ml penicillin, […] streptomycin, and 2 mM GlutaMax (GIBCO, BRL).
Stock T47 D cells are maintained in growth medium. […]
At the end of BrdU labeling, the medium is removed and BrdU incorporation is measured using a cell proliferation ELISA kit (#RPN 250, Amersham Life Science) according to manufacturer's instructions. […] Then 25 μl of 1 M sulfuric acid is added to each well to stop color reaction and optical density is read in a plate reader at 450 nm within 5 min.
Square root-transformed data are used for analysis of variance and nonlinear dose response curve fitting for both agonist and antagonist modes. […] EC50 or IC50 values are calculated from the retransformed values. […]

Test [2] concerns rat uterine decidualization. As to the kind of experiment: Rat decidualization assay. In kind it is in vivo. The conditions noted are these: for EC50 for uterine wet weight (decidual response), individual studies: ovariectomized female Sprague-Dawley rats, once daily for seven days. Here is the method:
b. Animals (RACUC Protocol #5002)
The animals are treated once daily for seven days.
Uteri are removed and trimmed of fat.
Body weight: Mean total animal body weight (default-kg)
Decidual response: [(D−C)/C]×100%

Another test has as its target T1, androgen receptor (AR) (Mus musculus, UniProt P19091).
T1 construct: L929 cells which express the AR but not the PR; endogenous in cells; host or cells: L929 cells infected with an adenovirus PRE-tk-luciferase reporter
T1 sequence (P19091 1-899): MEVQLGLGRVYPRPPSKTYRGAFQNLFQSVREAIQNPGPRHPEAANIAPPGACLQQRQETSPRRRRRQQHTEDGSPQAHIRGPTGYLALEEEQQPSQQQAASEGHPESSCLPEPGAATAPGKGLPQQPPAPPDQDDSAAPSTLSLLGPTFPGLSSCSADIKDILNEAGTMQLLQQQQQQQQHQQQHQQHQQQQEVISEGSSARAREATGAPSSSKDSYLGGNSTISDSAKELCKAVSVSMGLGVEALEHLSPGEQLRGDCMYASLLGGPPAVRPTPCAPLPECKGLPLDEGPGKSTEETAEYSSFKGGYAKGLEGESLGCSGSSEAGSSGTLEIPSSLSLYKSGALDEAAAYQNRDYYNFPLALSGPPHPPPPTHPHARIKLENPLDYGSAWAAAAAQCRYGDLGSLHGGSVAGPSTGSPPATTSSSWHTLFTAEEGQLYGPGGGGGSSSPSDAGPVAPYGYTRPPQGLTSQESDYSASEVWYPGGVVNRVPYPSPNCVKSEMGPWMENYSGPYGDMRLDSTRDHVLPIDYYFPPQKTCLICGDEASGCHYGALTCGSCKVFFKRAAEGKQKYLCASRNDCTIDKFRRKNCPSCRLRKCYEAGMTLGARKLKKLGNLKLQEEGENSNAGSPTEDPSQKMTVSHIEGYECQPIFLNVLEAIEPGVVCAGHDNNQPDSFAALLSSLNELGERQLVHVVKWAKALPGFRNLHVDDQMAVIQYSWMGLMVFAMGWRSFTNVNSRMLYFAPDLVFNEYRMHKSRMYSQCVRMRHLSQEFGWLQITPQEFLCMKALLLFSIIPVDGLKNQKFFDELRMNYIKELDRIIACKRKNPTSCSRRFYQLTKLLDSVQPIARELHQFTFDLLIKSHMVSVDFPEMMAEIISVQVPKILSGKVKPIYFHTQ
As to the kind of experiment: Androgen receptor agonistic/antagonistic activity, PRE-tk-luciferase reporter in L929 cells. Type of test: cell-based. Here is the method:
The androgen receptor (AR) agonistic and antagonistic activity of the compositions of the invention in the L929 cells which express the AR but not the PR was evaluated as described in Zhang et al., Steroids, 65(10-11): 637-643 (October-November 2000).
Cells were plated in 96-well plates at 25,000 cells/well in DMEM (BioWhittaker) with 10% (v/v) fetal bovine serum (FBS). The next day, cells were infected with the adenovirus PRE-tk-luciferase reporter construct (2×10^9 pfu/ml particles) and kept in DMEM containing 10% charcoal stripped FBS for an additional 24 hours. […] To test the anti-androgenic activity, cells were co-treated with 3 nM DHT. Luciferase activity was measured 24 hours following the treatment.

A further test deals with acne vulgaris. As to the kind of experiment: Treatment of acne vulgaris in a human patient. Type of test: in vivo. The conditions noted are these: oral tablet about 20 mg daily. On the procedure: A human patient having acne vulgaris is treated according to the present invention. Specifically, 5-(4,4-dimethyl-2-thioxo-1,4-dihydro-2H-3,1-benzoxazin-6-yl)-1-methyl-1H-pyrrole-2-carbonitrile is orally delivered to the patient daily. Delivery is in the form of a tablet formulated to contain about 20 mg of 5-(4,4-dimethyl-2-thioxo-1,4-dihydro-2H-3,1-benzoxazin-6-yl)-1-methyl-1H-pyrrole-2-carbonitrile.

The next test relates to eczema. As to the kind of experiment: Conditioning the skin of a human patient with severe eczema. In kind it is in vivo. The conditions noted are these: about 50 mg daily. Here is the method:
A human patient having a severe form of eczema is treated according to the present invention. Specifically, about 50 mg of 5-(4,4-dimethyl-2-thioxo-1,4-dihydro-2H-3,1-benzoxazin-6-yl)-1-methyl-1H-pyrrole-2-carbonitrile is delivered to the patient daily.

Molecules are shown by their SMILES. “And” between values parts separate entries of the source, which are not always exact repeats. Identical values can stand only once.

Consider `Cn1c(C#N)ccc1-c1ccc2c(c1)C1(CCCCC1)OC(=S)N2` [Example 4, 1-Methyl-5-(2-thioxo-1,2-dihydrospiro[3,1-benzoxazine-4,1′-cyclohexan]-6-yl)-1H-pyrrole-2-carbonitrile], for which, in test [1], the EC50 was 0.3 nM.
`Cn1c(C#N)ccc1-c1ccc2c(c1)C(C(F)(F)F)(C(F)(F)F)OC(=S)N2` [Example 6, 1-Methyl-5-[2-thioxo-4,4-bis(trifluoromethyl)-1,4-dihydro-2H-3,1-benzoxazin-6-yl]-1H-pyrrole-2-carbonitrile]: the EC50 in test [1] is under 10 nM.
As for `CC#C[C@]1(O)CC[C@H]2[C@@H]3CCC4=CC(=O)CCC4=C3[C@@H](c3ccc(N(C)C)cc3)C[C@@]21C` [RU486], in the test with T47D cells (read-out: IC50 (half-maximal decrease in trimegestone induced BrdU incorporation), antagonist mode, in the presence of 0.03 nM trimegestone), the IC50 was 0.016 nM and 0.018 nM. Further, the “IC50 for uterine weight (decrease in EC50 progesterone induced decidual response)” value in test [2] (ovariectomized rats, p.o., with EC50 dose of progesterone) is 0.21 mg/kg, p.o. and 0.14 mg/kg, p.o.
For `C[C@H](O)C(=O)[C@@]1(C)CC[C@H]2[C@@H]3CCC4=CC(=O)CCC4=C3CC[C@@]21C` [Trimegestone], the EC50 with T47D cells (agonist mode, individual studies, read-out: EC50 (half-maximal increase in BrdU incorporation)) was 0.017 nM and 0.014 nM and 0.019 nM.
In the case of `Cn1c(C#N)ccc1-c1ccc2c(c1)C(C)(C)OC(=S)N2` [5-(4,4-dimethyl-2-thioxo-1,4-dihydro-2H-3,1-benzoxazin-6-yl)-1-methyl-1H-pyrrole-2-carbonitrile], at androgen receptor (AR) (at the maximum concentration tested (10 nM)), the AR agonistic activity entry is reported as “only marginal agonistic activity”. Further, the AR antagonistic activity result at androgen receptor (AR) (nine point dose response, co-treated with 3 nM DHT) is on record as “significant antagonistic activity”. In addition, in the test with acne vulgaris (after about 24 weeks), the Acne vulgaris outcome is “improvement in the acne vulgaris is observed”. Further, in the test on acne vulgaris (forty-five to sixty days after the treatment), the “Presence of lesions caused by acne vulgaris” value is given as “a decrease in the presence of lesions caused by acne vulgaris is noticed”. In addition, in the test on eczema (after about 12 weeks), the Eczema outcome is listed as “improvement in the eczema is observed”. The “Dryness of the skin” value with eczema (thirty days after the treatment) is on record as “a decrease in the dryness affected to the skin is noticed”.
Regarding `Cn1c(C#N)ccc1-c1ccc2c(c1)C1(CCC1)OC(=S)N2` [Example 1, 1-Methyl-5-(2-thioxo-1,2-dihydrospiro[3,1-benzoxazine-4,1′-cyclobutan]-6-yl)-1H-pyrrole-2-carbonitrile], in test [1], the EC50 is 0.5 nM.
Take `CC(=O)[C@H]1CC[C@H]2[C@@H]3CCC4=CC(=O)CC[C@]4(C)[C@H]3CC[C@]12C` [Progesterone]: the “EC50 for uterine wet weight (decidual response), individual studies” value (“EC50 for uterine wet weight” below) in test [2] (s.c.) is listed as 5.50 mg/kg, s.c.
Turning to `CC(=O)O[C@]1(C(C)=O)CC[C@H]2[C@@H]3C[C@H](C)C4=CC(=O)CC[C@]4(C)[C@H]3CC[C@@]21C` [MPA, medroxyprogesterone acetate], in test [2] (s.c.), the “EC50 for uterine wet weight” value is 0.42 mg/kg, s.c. and 0.39 mg/kg, s.c. (2×).
As to `CCC1(C)OC(=S)Nc2ccc(-c3ccc(C#N)n3C)cc21` (centres unmarked) [Example 3, 5-(4-ethyl-4-methyl-2-thioxo-1,4-dihydro-2H-3,1-benzoxazin-6-yl)-1-methyl-1H-pyrrole-2-carbonitrile], the EC50 in test [1] amounted to 0.1 nM.
With `CCC1(CC)OC(=S)Nc2ccc(-c3ccc(C#N)n3C)cc21` [Example 2, 5-(4,4-Diethyl-2-thioxo-1,4-dihydro-2H-3,1-benzoxazin-6-yl)-1-methyl-1H-pyrrole-2-carbonitrile], the EC50 in test [1] turned out to be 0.1 nM.
On to `C#C[C@]1(O)CC[C@H]2[C@@H]3CCC4=CC(=O)CC[C@@H]4[C@H]3CC[C@@]21CC` [Levonorgestrel], for which the “EC50 for uterine wet weight” value in test [2] (s.c.) is 0.08 mg/kg, s.c. and 0.12 mg/kg, s.c. and 0.09 mg/kg, s.c. (2×).
Consider `C#C[C@]1(O)CC[C@H]2[C@@H]3CCC4=CC(=O)CC[C@@H]4[C@H]3C(=C)C[C@@]21CC` [3-Ketodesogestrel], for which, in test [2] (average of dose-response curves, ovariectomized rats, s.c.), the “Estimated average EC50 for uterine weight (decidual response)” value was 0.10 mg/kg, s.c. In addition, in test [2] (s.c.), the “EC50 for uterine wet weight” value is 0.10 mg/kg, s.c. and 0.06 mg/kg, s.c. and 0.11 mg/kg, s.c.
As to `Cn1c(C#N)ccc1-c1ccc2c(c1)C1(CCCC1)OC(=S)N2` [Example 5, 1-Methyl-5-(2-thioxo-1,2-dihydrospiro [3,1-benzoxazine-4,1′-cyclopentan]-6-yl)-1H-pyrrole-2-carbonitrile], in test [1], the EC50 was 0.5 nM.
